Reference: patent publication US20080312209A1, “Piperazine Heteroaryl Derivatives as Gpr38 Agonists” (Glaxo Group Limited, priority 2005, published 2008)

What was measured:
hGPR38R [1] = target: T1, hGPR38R (Homo sapiens, UniProt O43193); experiment: GPR38 GTPγS functional agonist assay; assay type: biochemical; design: expressed in transfected cells; host or cells: HEK293 (transient transfection; P2 membrane fractions); conditions: [35S]GTPγS SPA, HEK293 membranes with hGPR38R and Go G-protein; read-out: pEC50 in the GTPγS assay (converted)
Procedure: The potencies and intrinsic activities of the compounds of this invention can also be determined according to the [35S]GTPγS functional assay which is described herein. It has been found, using the [35S]GTPγS functional assay, that compounds of formula (I) appear to be partial or full agonists of the GPR38 receptor.
GPR38GTPγS Functional Agonist Assay Protocol
For each compound being assayed, in an Opti clear bottom 96 well plate, is added:—
(a) 20 μl of test compound (or 10 μl of guanosine 5′-triphosphate (GTP) as non-specific binding control) diluted to required concentration in assay buffer (20 mM N-2-Hydroxyethylpiperazine-N′-2-ethanesulfonic acid (HEPES)+100 mM NaCl+10 mM MgCl2, pH adjusted to 7.4 with NaOH); (b) 60 μl bead/membrane/GDP mix prepared by suspending wheat germ agglutinin-polyvinyltoluene (WGA-PVT) scintillation proximity assay (SPA) beads at 100 mg/ml in assay buffer followed by mixing with membrane (prepared in accordance with the methodology described above) and diluting in assay buffer to give a final volume of 60 μl which contains 10 μg protein and 0.5 mg bead per well—mixture is pre-mixed at 4° C. for 30 min on a roller and just prior to addition to the plate, 10 μM final concentration of guanosine 5′ diphosphate (GDP—diluted in assay buffer) is added; (c) 20 μl guanosine 5′ [γ35-S]thiotriphosphate, triethylamine salt (Amersham; radioactivity concentration=37 kBq/μl or 1 mCi/ml; Specific Activity 1160 Ci/mmol) diluted to 1.9 nM in assay buffer to give 0.38 nM final.
The plate is incubated on a shaker at 25° C. for 30 min followed by centrifugation for 5 min at 1500 rpm. The plate is read between 3 and 6 h after completion of centrifuge run in a Wallac Microbeta counter on a 1 min normalised tritium count protocol. Data is analysed using a 4-parameter logistic equation. Basal activity used as minimum.
(§1) The following alternative procedure may also be used:
Membranes are derived from bulk cell cultures of HEK293 cell lines transiently transfected with hGPR38R and Go G-protein. P2 membranes fractions are prepared, aliquoted and stored at −80° C.
For each compound being assayed, the following is added into a white Greiner 384 well plate:—
(a) 1 μl of test compound diluted to required concentration in DMSO. (b) 20 μl bead/membrane/Saponin/GDP mix prepared as follows;—suspension of LEADseeker wheat germ agglutinin (WGA) scintillation proximity assay (SPA) beads at 25 mg/ml in assay buffer (20 mM N-2-Hydroxyethylpiperazine-N′-2-ethanesulfonic acid (HEPES)+100 mM NaCl+10 mM MgCl2, pH adjusted to 7.4 with KOH) containing saponin at 150 ug/ml. Mixing of bead suspension with membranes at 500 ug/ml (prepared in accordance with the methodology described above) and diluting in assay buffer to give a final volume of 20 μl which contains 5 μg protein and 0.25 mg bead per well.
Mixture is pre-mixed for 30 minutes on a roller and just prior to addition to the plate, 3 μM final assay concentration of guanosine 5′ diphosphate (GDP) (diluted in assay buffer) is added.
(c) 25 μl guanosine 5′ [γ35-S]thiotriphosphate, triethylamine salt (Amersham; radioactivity concentration=37 kBq/μl or 1 mCi/ml; Specific Activity 1160 Ci/mmol) diluted to 0.6 nM in assay buffer to give 0.33 nM final assay concentration.
The plate is then spun for 2 minutes at 1500 rpm and then incubated at room temperature for 4 hours. The plate is then read on a Viewlux Plux (Perkin Elmer). Data is analysed using a 4-parameter logistic equation.
Target sequence in this assay (O43193 whole entry): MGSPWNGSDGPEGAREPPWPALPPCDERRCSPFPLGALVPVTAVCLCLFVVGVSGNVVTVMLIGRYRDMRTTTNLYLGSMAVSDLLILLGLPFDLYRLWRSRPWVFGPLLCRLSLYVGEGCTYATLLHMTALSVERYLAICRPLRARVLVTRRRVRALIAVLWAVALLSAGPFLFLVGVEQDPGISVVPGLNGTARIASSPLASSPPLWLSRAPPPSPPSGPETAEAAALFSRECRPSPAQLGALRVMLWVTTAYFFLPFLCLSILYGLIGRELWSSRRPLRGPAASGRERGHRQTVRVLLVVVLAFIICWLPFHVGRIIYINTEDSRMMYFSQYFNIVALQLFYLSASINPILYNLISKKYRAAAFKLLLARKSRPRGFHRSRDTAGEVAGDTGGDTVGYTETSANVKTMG
Target sequence in this assay (P09471 2-354 partner limits assumed): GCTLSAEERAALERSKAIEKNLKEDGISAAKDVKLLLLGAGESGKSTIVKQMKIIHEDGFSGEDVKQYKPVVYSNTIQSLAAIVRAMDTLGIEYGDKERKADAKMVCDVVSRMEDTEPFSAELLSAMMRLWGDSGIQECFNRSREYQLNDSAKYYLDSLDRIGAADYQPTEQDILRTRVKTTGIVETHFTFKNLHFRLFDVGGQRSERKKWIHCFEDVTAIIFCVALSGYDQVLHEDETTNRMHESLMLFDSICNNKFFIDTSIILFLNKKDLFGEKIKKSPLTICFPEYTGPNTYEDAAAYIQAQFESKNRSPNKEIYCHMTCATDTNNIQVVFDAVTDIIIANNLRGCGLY
Target sequence in this assay (P62873 2-340 partner limits assumed): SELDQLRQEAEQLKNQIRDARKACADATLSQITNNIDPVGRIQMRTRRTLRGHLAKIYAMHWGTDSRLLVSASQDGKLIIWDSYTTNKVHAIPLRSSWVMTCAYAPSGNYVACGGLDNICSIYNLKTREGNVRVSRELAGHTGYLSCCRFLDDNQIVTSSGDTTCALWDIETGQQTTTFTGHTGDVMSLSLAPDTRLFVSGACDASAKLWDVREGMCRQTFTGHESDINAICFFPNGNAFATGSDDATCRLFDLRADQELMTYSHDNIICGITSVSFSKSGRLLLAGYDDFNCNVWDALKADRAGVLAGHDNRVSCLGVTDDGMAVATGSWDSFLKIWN
Target sequence in this assay (P59768 2-68 partner limits assumed): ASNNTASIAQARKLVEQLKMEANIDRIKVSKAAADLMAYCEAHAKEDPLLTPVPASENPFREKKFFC

hGPR38R [2] = target: T1, hGPR38R; experiment: GPR38 FLIPR functional agonist assay; assay type: cell-based; design: expressed in transfected cells; conditions: HEK-293 cells stably expressing the GPR38 receptor; agonist response, Fluo-4 fluorescence; read-out: pEC50 in the FLIPR assay (converted)
Procedure: The potencies and efficacies of the compounds of this invention for GPR^38 can be determined by FLIPR assay performed on the human cloned receptor as described herein. It has been found, using the FLIPR functional assay, that compounds of formula (I) appear to be partial or full agonists of the GPR38 receptor.
GPR38FLIPR Functional Agonist Assay Protocol
HEK-293 cells stably expressing the GPR38 receptor were seeded (10,000 cells/well) into poly-D-lysine coated 384-well black-wall, clear-bottom microtitre plates (Becton Dickinson) 24 h prior to assay. On day of assay, cells were washed (×2) with 80 ul of assay buffer (Hanks Balanced Salts Solution (HBSS), 10 mM HEPES, 200 μM Ca^2+, 2.5 mM probenecid) using the EMBLA cell washer. After the final wash, buffer was aspirated to leave a residual volume of 30 ul on the cells. Cells were loaded with 1 μM (final) Fluo-4-AM fluorescent indicator dye (TefLabs) in assay buffer, (20 ul loading solution added to each well using the Multidrop). Plates were incubated for 1 h at 37° C., before being washed (×3) with 80 ul assay buffer using the EMBLA cell washer; 30 ul residual being left after the final wash. Plates were then assayed on a Fluorometric Imaging Plate Reader (FLIPR, Molecular Devices). Test compounds were prepared in assay buffer without probenecid, but containing 0.03% CHAPS. In the FLIPR, 10 ul of test compound was added to the cells and changes in fluorescence measured over a 2 min timeframe. Maximum change in fluorescence over baseline was used to determine agonist response and concentration response curves were constructed, using a 4-parameter logistic equation.
as §1
Target sequence in this assay (O43193 whole entry): as the sequence (O43193 whole entry) above
HEK-293 cells stably expressing the GPR38 receptor were seeded (30,000 cells/100 ul growth media/well) into poly-D-lysine coated 96-well black-wall, clear-bottom microtitre plates (Corning) 24 hours prior to assay. On the day of assay the cells were loaded with 2 μM (final) Fluo-4-AM fluorescent indicator dye (Molecular Probes) and 1 mM (final) probenicid in assay buffer (145 mM sodium chloride, 2.5 mM potassium chloride, 10 mM Hepes, 10 mM glucose, 1.2 mM magnesium chloride, 1.5 mM calcium chloride and 0.1% BSA) (50 ul loading solution added to each well). Plates were incubated for 1 hour at 25° C., before being washed 4 times with 100 ul assay buffer using the EMBLA cell washer; 150 ul residual being left after the final wash. The cells were then incubated at 25° C. for 20 minutes and the plates were then assayed on a Fluorometric Imaging Plate Reader (FLIPR, Molecular Devices). Test compounds were prepared in assay buffer without probenecid. In the FLIPR, 50 ul of test compound was added to the cells and changes in fluorescence measured over a 2 minute timeframe. Maximum change in fluorescence over baseline was used to determine agonist response and concentration response curves were constructed, using a 4-parameter logistic equation.

EC50 (hGPR38R [1]): < 3.16 µM | EC50 (hGPR38R [2]): < 316 nM
Structure (SMILES): C[C@@H]1CN(Cc2ccc(-c3cccnc3C(=O)N3CCC(Oc4cccc(F)c4)CC3)cc2)C[C@H](C)N1 [Example 34, (3R,5S)-1-({4-[2-({4-[(3-fluorophenyl)oxy]-1-piperidinyl}carbonyl)-3-pyridinyl]phenyl}methyl)-3,5-dimethylpiperazine]
